The results in this text go back to patent US8906889B2, “C-3 cycloalkenyl triterpenoids with HIV maturation inhibitory activity” (priority 2012, dated 2014).

As usually defined, the EC50 is the concentration at which the effect is half-maximal.

Each structure is given as a SMILES string. Structures can show the parent of a compound that is named as a salt.

The assay has as its system recombinant NL4-3 virus (Renilla luciferase, Gag P373S). Nature of the assay: HIV cell culture assay (luciferase reporter, MT-2 cells). The assay is classed as cell-based. The settings on record: Renilla, NL43, MT-2 cells infected for 4-5 days with NLRluc recombinants; luciferase activity. How it is done:
MT-2 cells and 293T cells were obtained from the NIH AIDS Research and Reference Reagent Program. MT-2 cells were propagated in RPMI 1640 media supplemented with 10% heat inactivated fetal bovine serum, […]. The 293T cells were propagated in DMEM media supplemented with 10% heat inactivated fetal bovine serum (FBS), 100 units/ml penicillin G and 100 μg/ml streptomycin. The proviral DNA clone of NL4-3 was obtained from the NIH AIDS Research and Reference Reagent Program. A recombinant NL4-3 virus, in which a section of the nef gene from NL4-3 was replaced with the Renilla luciferase gene, was used as a reference virus. In addition, residue Gag P373 was converted to P373S. Briefly, the recombinant virus was prepared by transfection of the altered proviral clone of NL4-3. Transfections were performed in 293T cells using LipofectAMINE PLUS from Invitrogen (Carlsbad, Calif.), according to manufacturer's instruction. The virus was titered in MT-2 cells using luciferase enzyme activity as a marker. Luciferase was quantitated using the Dual Luciferase kit from Promega (Madison, Wis.), with modifications to the manufacturer's protocol. The diluted Passive Lysis solution was pre-mixed with the re-suspended Luciferase Assay Reagent and the re-suspended Stop & Glo Substrate (2:1:1 ratio). Fifty (50) μL of the mixture was added to each aspirated well on assay plates and luciferase activity was measured immediately on a Wallac TriLux (Perkin-Elmer). Antiviral activities of inhibitors toward the recombinant virus were quantified by measuring luciferase activity in cells infected for 4-5 days with NLRluc recombinants in the presence serial dilutions of the inhibitor.
(In a reporter assay the amount or activity of a reporter protein is the signal.)

`C=C(C)[C@@H]1CC[C@]2(NCCN3CCS(=O)(=O)CC3)CC[C@]3(C)[C@H](CC[C@@H]4[C@@]5(C)CC=C(C6=CCC(C(=O)O)CC6)C(C)(C)[C@@H]5CC[C@]43C)[C@@H]12` (stereo in doubt) [Example 9, (R)-4-((1R,3aS,5aR,5bR,7aR,11aS,11bR,13aR,13bR)-3a-((2-(1,1-dioxidothiomorpholino)ethyl)amino)-5a,5b,8,8,11a-pentamethyl-1-(prop-1-en-2-yl)-2,3,3a,4,5,5a,5b,6,7,7a,8,11,11a,11b,12,13,13a,13b-octadecahydro-1H-cyclopenta[a]chrysen-9-yl)cyclohex-3-enecarboxylic acid, TFA]: the concentration giving a half-maximal response (EC50) was 0.892 nM. The result for `C=C(C)[C@@H]1CC[C@]2(NCCN3CCS(=O)(=O)CC3)CC[C@]3(C)[C@H](CC[C@@H]4[C@@]5(C)CC=C(C6=CCC(C(=O)O)CC6)C(C)(C)[C@@H]5CC[C@]43C)[C@@H]12` (stereo in doubt) [Example 10, (S)-4-((1R,3aS,5aR,5bR,7aR,11aS,11bR,13aR,13bR)-3a-((2-(1,1-dioxidothiomorpholino)ethyl)amino)-5a,5b,8,8,11a-pentamethyl-1-(prop-1-en-2-yl)-2,3,3a,4,5,5a,5b,6,7,7a,8,11,11a,11b,12,13,13a,13b-octadecahydro-1H-cyclopenta[a]chrysen-9-yl)cyclohex-3-enecarboxylic acid, TFA] reads 1.26 nM; that for `C=C(C)[C@@H]1CC[C@]2(NCCN3CCS(=O)(=O)CC3)CC[C@]3(C)[C@H](CC[C@@H]4[C@@]5(C)CC=C(C6=CC7(C6)CC(C(=O)O)(C(=O)O)C7)C(C)(C)[C@@H]5CC[C@]43C)[C@@H]12` [Example 1, 6-((1R,3aS,5aR,5bR,7aR,11aS,11bR,13aR,13bR)-3a-((2-(1,1-dioxidothiomorpholino)ethyl)amino)-5a,5b,8,8,11a-pentamethyl-1-(prop-1-en-2-yl)-2,3,3a,4,5,5a,5b,6,7,7a,8,11,11a,11b,12,13,13a,13b-octadecahydro-1H-cyclopenta[a]chrysen-9-yl)spiro[3.3]hept-5-ene-2,2-dicarboxylic acid, HCl], 10 nM; that for `C=C(C)[C@@H]1CC[C@]2(NCCN3CCS(=O)(=O)CC3)CC[C@]3(C)[C@H](CC[C@@H]4[C@@]5(C)C=CC(=C6CC7(C6)CC(C(=O)O)(C(=O)O)C7)C(C)(C)[C@@H]5CC[C@]43C)[C@@H]12` [Example 2, 6-((1R,3aS,5aR,5bR,7aR,11aS,11bR,13aR,13bR)-3a-((2-(1,1-dioxidothiomorpholino)ethyl)amino)-5a,5b,8,8,11a-pentamethyl-1-(prop-1-en-2-yl)-2,3,3a,4,5,5a,6,7,7a,8,11b,12,13,13a-tetradecahydro-1H-cyclopenta[a]chrysen-9(5bH,11aH,13bH)-ylidene)spiro[3.3]heptane-2,2-dicarboxylic acid, HCl], 30 nM.

In the case of `C=C(C)[C@@H]1CC[C@]2(NCCN3CCS(=O)(=O)CC3)CC[C@]3(C)[C@H](CC[C@@H]4[C@@]5(C)CC=C(C6=CC7(C6)CC(C(=O)O)C7)C(C)(C)[C@@H]5CC[C@]43C)[C@@H]12` (stereo partly drawn) [Example 3, 6-((1R,3aS,5aR,5bR,7aR,11aS,11bR,13aR,13bR)-3a-((2-(1,1-dioxidothiomorpholino)ethyl)amino)-5a,5b,8,8,11a-pentamethyl-1-(prop-1-en-2-yl)-2,3,3a,4,5,5a,5b,6,7,7a,8,11,11a,11b,12,13,13a,13b-octadecahydro-1H-cyclopenta[a]chrysen-9-yl)spiro[3.3]hept-5-ene-2-carboxylic acid, HCl], the 50% effective concentration (EC50) is 1.54 nM. Take `C=C(C)[C@@H]1CC[C@]2(NCCN3CCS(=O)(=O)CC3)CC[C@]3(C)[C@H](CC[C@@H]4[C@@]5(C)CC=C(C6=CCC(C(=O)O)CC6)C(C)(C)[C@@H]5CC[C@]43C)[C@@H]12` (stereo partly drawn) [Example 4, 4-((1R,3aS,5aR,5bR,7aR,11aS,11bR,13aR,13bR)-3a-((2-(1,1-dioxidothiomorpholino)ethyl)amino)-5a,5b,8,8,11a-pentamethyl-1-(prop-1-en-2-yl)-2,3,3a,4,5,5a,5b,6,7,7a,8,11,11a,11b,12,13,13a,13b-octadecahydro-1H-cyclopenta[a]chrysen-9-yl)cyclohex-3-enecarboxylic acid, TFA]: the EC50 worked out at 0.659 nM.

`CC(C)[C@@H]1CC[C@]2(NCCN3CCS(=O)(=O)CC3)CC[C@]3(C)[C@H](CC[C@@H]4[C@@]5(C)CC=C(C6CC7(C6)CC(C(=O)O)(C(=O)O)C7)C(C)(C)[C@@H]5CC[C@]43C)[C@@H]12` [Example 5, 6-((1S,3aS,5aR,5bR,7aR,11aS,11bR,13aR,13bR)-3a-((2-(1,1-dioxidothiomorpholino)ethyl)amino)-1-isopropyl-5a,5b,8,8,11a-pentamethyl-2,3,3a,4,5,5a,5b,6,7,7a,8,11,11a,11b,12,13,13a,13b-octadecahydro-1H-cyclopenta[a]chrysen-9-yl)spiro[3.3]heptane-2,2-dicarboxylic acid, TFA]: the concentration giving a half-maximal response (EC50) amounted to 40 nM. On to `C=C(C)[C@@H]1CC[C@]2(C(=O)O)CC[C@]3(C)[C@H](CC[C@@H]4[C@@]5(C)CC=C(C6=CC7(C6)CC(C(=O)O)(C(=O)O)C7)C(C)(C)[C@@H]5CC[C@]43C)[C@@H]12` [Example 6, 6-((1R,3aS,5aR,5bR,7aR,11aS,11bR,13aR,13bR)-3a-carboxy-5a,5b,8,8,11a-pentamethyl-1-(prop-1-en-2-yl)-2,3,3a,4,5,5a,5b,6,7,7a,8,11,11a,11b,12,13,13a,13b-octadecahydro-1H-cyclopenta[a]chrysen-9-yl)spiro[3.3]hept-5-ene-2,2-dicarboxylic acid], for which the EC50 was found to be 30 nM. Consider `C=C(C)[C@@H]1CC[C@]2(NCCN3CCS(=O)(=O)CC3)CC[C@]3(C)[C@H](CC[C@@H]4[C@@]5(C)CC=C(C6=CCC(C(=O)O)(C(=O)O)CC6)C(C)(C)[C@@H]5CC[C@]43C)[C@@H]12` [Example 7, 4-((1R,3aS,5aR,5bR,7aR,11aS,11bR,13aR,13bR)-3a-((2-(1,1-dioxidothiomorpholino)ethyl)amino)-5a,5b,8,8,11a-pentamethyl-1-(prop-1-en-2-yl)-2,3,3a,4,5,5a,5b,6,7,7a,8,11,11a,11b,12,13,13a,13b-octadecahydro-1H-cyclopenta[a]chrysen-9-yl)cyclohex-3-ene-1,1-dicarboxylic acid, TFA], for which the EC50 was 100 nM. In the case of `CC(C)[C@@H]1CC[C@]2(NCCN3CCS(=O)(=O)CC3)CC[C@]3(C)[C@H](CC[C@@H]4[C@@]5(C)CC=C(C6=CCC(C(=O)O)CC6)C(C)(C)[C@@H]5CC[C@]43C)[C@@H]12` (stereo partly drawn) [Example 8, 4-((1S,3aS,5aR,5bR,7aR,11aS,11bR,13aR,13bR)-3a-((2-(1,1-dioxidothiomorpholino)ethyl)amino)-1-isopropyl-5a,5b,8,8,11a-pentamethyl-2,3,3a,4,5,5a,5b,6,7,7a,8,11,11a,11b,12,13,13a,13b-octadecahydro-1H-cyclopenta[a]chrysen-9-yl)cyclohex-3-enecarboxylic acid, TFA] it was 1.01 nM; in that of `C=C(C)[C@@H]1CC[C@]2(NCCN3CCS(=O)(=O)CC3)CC[C@]3(C)[C@H](CC[C@@H]4[C@@]5(C)CC=C(C6=CCC(O)(C(=O)O)CC6)C(C)(C)[C@@H]5CC[C@]43C)[C@@H]12` (stereo partly drawn) [Example 11, 4-((1R,3aS,5aR,5bR,7aR,11aS,11bR,13aR,13bR)-3a-((2-(1,1-dioxidothiomorpholino)ethyl)amino)-5a,5b,8,8,11a-pentamethyl-1-(prop-1-en-2-yl)-2,3,3a,4,5,5a,5b,6,7,7a,8,11,11a,11b,12,13,13a,13b-octadecahydro-1H-cyclopenta[a]chrysen-9-yl)-1-hydroxycyclohex-3-enecarboxylic acid, TFA], 1.99 nM; in that of `C=C(C)[C@@H]1CC[C@]2(NCCN3CCN(S(C)(=O)=O)CC3)CC[C@]3(C)[C@H](CC[C@@H]4[C@@]5(C)CC=C(C6=CCC(C(=O)O)CC6)C(C)(C)[C@@H]5CC[C@]43C)[C@@H]12` (stereo partly drawn) [Example 12, 4-((1R,3aS,5aR,5bR,7aR,11aS,11bR,13aR,13bR)-5a,5b,8,8,11a-pentamethyl-3a-((2-(4-(methylsulfonyl)piperazin-1-yl)ethyl)amino)-1-(prop-1-en-2-yl)-2,3,3a,4,5,5a,5b,6,7,7a,8,11,11a,11b,12,13,13a,13b-octadecahydro-1H-cyclopenta[a]chrysen-9-yl)cyclohex-3-enecarboxylic acid, TFA], 3.03 nM.

For the compound `C=C(C)[C@@H]1CC[C@]2(NCCN3CCC(S(C)(=O)=O)CC3)CC[C@]3(C)[C@H](CC[C@@H]4[C@@]5(C)CC=C(C6=CCC(C(=O)O)CC6)C(C)(C)[C@@H]5CC[C@]43C)[C@@H]12` (stereo partly drawn) [Example 13, 4-((1R,3aS,5aR,5bR,7aR,11aS,11bR,13aR,13bR)-5a,5b,8,8,11a-pentamethyl-3a-((2-(4-(methylsulfonyl)piperidin-1-yl)ethyl)amino)-1-(prop-1-en-2-yl)-2,3,3a,4,5,5a,5b,6,7,7a,8,11,11a,11b,12,13,13a,13b-octadecahydro-1H-cyclopenta[a]chrysen-9-yl)cyclohex-3-enecarboxylic acid, TFA], the EC50 was determined as 0.975 nM.
